Patent US7371779B2, “Synergistic compositions of N-acylhomoserine lactones and 4-quinolones” (The Secretary of State for Defense Science and Technology, priority 2001, dated 2008)
Where two headings read alike, the source gives them in different places.

Experiments:
murine splenocytes = assay: ConA mitogen-stimulated proliferation of murine splenocytes ([3H]-thymidine incorporation); assay type: cell-based, mouse (BALB/c); conditions: ConA 1 μg/ml, 100,000 spleen cells, Experiment I; read-out: IC50 in inhibition of ConA induced murine splenocyte proliferation
Procedure: (§1) Proliferation was assessed by the incorporation of [^3H]-thymidine into DNA. Eight-week-old female BALB/c mice were obtained from Harlan (Bicester, Oxon, UK) and given food and water ad libitum. Splenocyte suspensions were prepared by removing the spleens and placing them into RPMI 1640 medium. The spleens were forced through 70-μm-pore-size wire gauzes using the plunger from a 5-ml syringe to produce a single cell suspension. The cells were pelleted by centrifugation, and erythrocytes were lysed with 0.017 M Tris, 0.144 M ammonium chloride buffer, pH 7.2. Leucocytes were washed twice with RPMI 1640 medium with 2% (vol/vol) foetal calf serum (FCS) and resuspended in complete cell culture medium (CTCM) consisting of RPMI 1640 medium with 5% FCS, 2 mM L-glutamine, and 5×10^−5 M 2-mercaptoethanol. HSL compounds were tested at doubling down dilutions ranging from 1 mM to 0.1 μM in a final volume of 200 μl of CTCM, containing ConA (Sigma, Poole, UK) at 1 μg/ml and 100,000 spleen cells. Following incubation for 48 h at 37° C. in 5% CO2-air, 0.25 μCi [^3H]-thymidine (Amersham) in 10 μl volume made up in RPMI 1640 medium was added and the cells were incubated for a further 24 h. Cells were harvested onto fibreglass filters with a Packard filtermate harvester. After the addition of 25 μl of MicroScint-O (Packard) to each well the filters were counted with the Packard TopCount scintillation counter.
(§2) Mitogen (Concanavalin A) induced murine splenocyte proliferation was indicated by the incorporation of tritated thymidine into the DNA in the mouse spleen cells as shown by counts per minute using the scintillation counter. The inhibitory effect of an HSL compound being tested on cell proliferation was indicated by a reduction in counts per minute.
as §1, with “70 μm pore size” for “70-μm-pore-size”, “5 ml” for “5-ml”, “The title compound was” for “HSL compounds were”, “dilutions” for “dilutions ranging from 1 mM to 0.1 μM in a final volume of 200 μl of CTCM,”, “g/ml” for “μg/ml”, “COrair,” for “CO2-air,”
as §2, with “the title” for “an HSL”

human PBMC = assay: ConA mitogen-stimulated proliferation of human PBMC ([3H]-thymidine incorporation); assay type: cell-based; conditions: for IC50: Experiment II, read-out: IC50 in inhibition of ConA induced cell proliferation of PBMC
Procedure: Blood specimens were obtained with consent from healthy human volunteers. Human peripheral blood mononuclear cells (PBMC) were isolated from heparinised whole blood by buoyant density centrifugation over Histopaque 1077 (Sigma, Poole, UK) at 600 g for 20 minutes. PBMC harvested from the ‘buffy’ layers were washed twice with RPMI 1640 medium and resuspended in CTCM. […] Human PBMC were incubated for 48 h at 37° C. in 5% CO2-air, followed by pulsing with 0.25 μCi [^3H]-thymidine (see above). After a further incubation of 24 h cells were harvested onto fibreglass filters and then counted in the presence of MicroScint-O with the Packard TopCount.
Concanavalin induced cell proliferation of human peripheral blood mononuclear cells (PBMC) was tracked, as described in I above, by a measurement of counts per minute using the scintillation counter. The inhibitory effect of an HSL compound being tested on cell proliferation was indicated by a reduction in counts per minute. […] Columns B, C and D represent different sources of human PBMC samples used.
Plots of counts per minute (cpm) against the concentration of the quorum sensing molecules and the vehicle are shown in FIG. 11.

TNF-alpha = TNF-alpha production from LPS-stimulated human PBMC (sandwich ELISA); assay type: cell-based; conditions: for IC50: Experiment III, read-out: IC50 in inhibition of LPS induced production of TNF-α by human PBMC; for inhibition of LPS induced TNF-α production by human PBMC, in words: LPS-stimulated human PBMC
Procedure: Bacterial lipopolysaccharide (LPS) stimulates the production of a variety of cytokines, including TNF-alpha, from human PBMC; these cytokines in turn influence the development of T cells, supporting a T helper 1 conducive milieu. Human PBMC prepared from whole blood by buoyant density centrifugation were resuspended in CTCM. […] Following incubation for 24 h at 37° C. in 5% CO2-air, the cell culture supernatants were collected and tested for TNF-alpha levels by ‘sandwich’ ELISA. Briefly, 96-well Nunc MaxiSorp (Life Technologies, Paisley, UK) plates were coated with 50 μl of a 2 μg/ml solution of mouse anti-human TNF-alpha monoclonal antibody (Pharmingen, UK) in 0.05 M carbonate/bicarbonate buffer, pH 9.6 overnight at 4° C. After washing the plates three times with PBS-Tween, which contained phosphate buffered saline (PBS) with 0.5% (vol/vol) Tween 20 (Sigma, Poole, UK), the plates were blocked with 1% (wt/vol) bovine serum albumin (BSA) (Sigma, Poole, UK) at room temperature for 2 h. Following three washes with PBS-Tween, 50 μl of cell culture supernatants were added and incubated overnight at 4° C.; standard human TNF-alpha (Pharmingen, UK) ranging from 2000 to 31.25 pg/ml were included for each plate. After four washes with PBS-Tween, 50 μl of a second antibody, biotinylated mouse anti-human TNF-alpha monoclonal antibody (Pharmingen, UK) was added at 0.5 μg/1 ml diluted in 1% BSA in PBS-Tween and incubated at room temperature for 1 h. Following four washes, the bound biotinylated antibody was detected with 50 μl of a 1:1,000 dilution of Streptavidin-peroxidase (Pharmingen, UK). At the end of an hour incubation at room temperature, the plates were thoroughly washed six times with PBS-Tween and the assay was developed by the addition of 100 μl of 0.1 mg/ml of tetramethyl benzidine subtrate (Sigma, Poole, UK) in 0.1 M sodium acetate buffer, pH 6 containing 0.03% H2O2. The enzyme reaction was stopped with 50 μl of 2.5 M H2SO4 after an incubation of 10 minutes at room temperature and the development was read at 450 nm with a spectrophotometric 96-well plate reader (Dynex).

## O=C(CCCCCCCCCBr)CC(=O)N[C@H]1CCOC1=O [Example 7, N-(12-Bromo-3-oxododecanoyl)-L-homoserine lactone]
Murine splenocytes
  IC50: 6 µM
Human PBMC; human PBMC source B
  IC50: 20 µM
Human PBMC; human PBMC source D
  IC50: 7 µM
TNF-alpha
  IC50: 63 µM

## O=C(CCCCCCCCCCBr)CC(=O)N[C@H]1CCOC1=O [Example 9, N-(13-Bromo-3-oxotridecanoyl)-L-homoserine lactone]
Murine splenocytes
  IC50: 3 µM
Human PBMC; human PBMC source B
  IC50: 8 µM
Human PBMC; human PBMC source D
  IC50: 12 µM

## CCCCCCCCCCCC(=O)CC(=O)N[C@H]1CCOC1=O [Example 11, N-(3-Oxotetradecanoyl)-L-homoserine lactone]
Murine splenocytes
  IC50: 6 µM
Human PBMC; ConA 1 μg/ml
  inhibition of ConA induced proliferation of human PBMC (cpm), in words: inhibited proliferation of human PBMC
Human PBMC; human PBMC source B
  IC50: 32 µM
Human PBMC; human PBMC source C
  IC50: 12 µM
Human PBMC; human PBMC source D
  IC50: 30 µM
TNF-alpha
  IC50: 35 µM
  inhibition of LPS induced TNF-α production by human PBMC, in words: inhibited the secretion

## COC(=O)CCCCCCCCCCC(=O)CC(=O)N[C@H]1CCOC1=O [Example 13, N-(13-Methoxycarbonyl-3-oxotridecanoyl)-L-homoserine lactone]
Murine splenocytes
  IC50: 6 µM
Human PBMC; human PBMC source B
  IC50: 15 µM
Human PBMC; human PBMC source D
  IC50: 20 µM

## O=C(CCCCCCCCCO)CC(=O)N[C@H]1CCOC1=O [Example 19, N-(12-Hydroxy-3-oxododecanoyl)-L-homoserine lactone]
Murine splenocytes
  IC50: 9 µM
TNF-alpha
  IC50: 70 µM

## CCCC(=O)CC(=O)N[C@H]1CCOC1=O [OHHL, reference compound]
TNF-alpha
  inhibition of LPS induced TNF-α production by human PBMC, in words: difference in activity between OHHL and OdDHL is marked
